From paper PMC8058733, “A pain killer without analgesic tolerance designed by co-targeting PSD-95-nNOS interaction and α2-containning GABAARs” (Theranostics, 2021)
“Also recorded” adds a separate entry of the source.

Columns and labels:
[1] = Identification of metabolites of ZL006-05 in plasma (UPLC-UV/Q-TOF MS); format: in vivo; conditions: rats
Procedure: ZL006-05 was given to rats by intravenous injection (i.v., 6.0 mg/kg) and oral administration (i.g., 90 mg/kg) respectively. Plasma samples were collected at pre-dose and 0.25, 0.5, 2 and 4 h for i.v. and 0.5, 1, 2 and 4 h for i.g after a single dose administration. Pre-dose plasma samples were used as control blank. After vortex and centrifugation, supernatant was removed and dried out by nitrogen blowing instrument at 40 °C and then re-dissolved with 100 μL water/ACN (50/50, v/v). The resulting samples were injected and analyzed by UPLC-UV/Q-TOF MS. Metabolites were separated with ACQUITY UPLC HSS T3 C18 column (2.1 × 100 mm I.D., 1.7 µm I.D.) with column temperature at 45 °C and flow rate at 0.4 mL/min, detected by UV (200-600 nm). Masslynx V4.1 of Waters was used for data acquiring, MetaboLynx XS with Masslynx V4.1 was used for data analysis.
Supplementary Figure 3. Proposed metabolic pathways of ZL006-05 in rats. […]
of ZL006-05, including M2-2 (glucuronide conjunction), M3-2 (Mono-oxidation & […]
parent drug were found in plasma after oral administration of ZL006-05, including M1 (Oxidation by de-H2), M2-1 and M2-2 (glucuronide conjunction), M3-1 and M3-2 (Mono-oxidation & glucuronide conjunction). Based on the chromatogram of UPLC- […]
oral dosing, the proposed metabolic pathways of ZL006-05 in blood were summarized. i.v.: intravenous injection; i.g.: oral administration.
(1 picture or pasted object on this page, not shown here)

motor coordination = assay: Rotarod test, motor coordination; format: in vivo; conditions: rats, 30 min after injection, ZL006-05 60 mg/kg, i.v., diazepam 0.5 mg/kg
α3β3γ2 GABAARs = molecular target: T1, α3β3γ2 GABAARs (Homo sapiens, UniProt P18507+P28472+P34903); assay: Potentiation of GABA-evoked currents, whole-cell patch-clamp in HEK293 cells transiently expressing recombinant GABAARs; format: cell-based; conditions: α3β3γ2
T1 construct: Shanghai Genechem Co.,Ltd (γ2 plasmid); host or cells: HEK293
T1 sequence (P34903 29-492): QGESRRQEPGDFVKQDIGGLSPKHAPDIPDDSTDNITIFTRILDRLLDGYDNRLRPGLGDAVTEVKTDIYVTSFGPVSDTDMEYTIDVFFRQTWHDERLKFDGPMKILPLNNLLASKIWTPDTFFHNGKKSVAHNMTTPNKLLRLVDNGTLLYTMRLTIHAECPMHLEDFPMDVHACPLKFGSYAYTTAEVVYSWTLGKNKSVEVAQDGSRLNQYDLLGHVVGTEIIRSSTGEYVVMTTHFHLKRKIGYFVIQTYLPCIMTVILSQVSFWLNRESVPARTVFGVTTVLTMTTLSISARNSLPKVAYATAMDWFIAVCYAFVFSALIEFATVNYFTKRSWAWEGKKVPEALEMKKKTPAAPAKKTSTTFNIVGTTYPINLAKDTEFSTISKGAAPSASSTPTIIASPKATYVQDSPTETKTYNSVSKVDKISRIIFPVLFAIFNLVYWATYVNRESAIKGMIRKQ
T1 sequence (P28472 26-473): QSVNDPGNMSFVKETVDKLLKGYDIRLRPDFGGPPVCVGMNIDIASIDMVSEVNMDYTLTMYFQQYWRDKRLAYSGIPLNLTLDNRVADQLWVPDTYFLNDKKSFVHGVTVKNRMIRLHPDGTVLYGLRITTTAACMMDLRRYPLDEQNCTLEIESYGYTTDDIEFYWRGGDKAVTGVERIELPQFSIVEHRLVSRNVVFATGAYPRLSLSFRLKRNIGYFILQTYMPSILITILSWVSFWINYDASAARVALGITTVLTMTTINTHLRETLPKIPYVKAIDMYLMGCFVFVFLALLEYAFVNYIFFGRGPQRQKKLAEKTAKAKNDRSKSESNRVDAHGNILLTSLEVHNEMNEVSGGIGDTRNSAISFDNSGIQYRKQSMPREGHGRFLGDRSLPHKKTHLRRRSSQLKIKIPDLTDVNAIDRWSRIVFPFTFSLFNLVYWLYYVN
T1 sequence (P18507 40-475): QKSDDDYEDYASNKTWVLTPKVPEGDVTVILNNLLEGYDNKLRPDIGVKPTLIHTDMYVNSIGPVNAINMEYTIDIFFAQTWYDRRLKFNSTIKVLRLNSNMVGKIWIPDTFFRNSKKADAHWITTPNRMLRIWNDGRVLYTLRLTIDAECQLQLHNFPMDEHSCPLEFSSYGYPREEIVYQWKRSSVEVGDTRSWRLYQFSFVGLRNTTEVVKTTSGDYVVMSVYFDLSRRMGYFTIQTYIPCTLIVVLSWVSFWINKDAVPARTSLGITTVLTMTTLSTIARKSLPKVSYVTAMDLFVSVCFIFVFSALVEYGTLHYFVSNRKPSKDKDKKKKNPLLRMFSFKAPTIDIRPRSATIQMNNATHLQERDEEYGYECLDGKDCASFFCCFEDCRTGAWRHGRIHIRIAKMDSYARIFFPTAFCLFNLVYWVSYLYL
Procedure: (§1) The affinities of drugs for α1, α2, α3 and α5 subunits were studied in the HEK293 cells (from FuHeng Biology, Shanghai, China) transiently expressing recombinant GABAARs (α1β2γ2, α2β3γ2, α3β3γ2 and α5β2γ2) as described previously. Briefly, the HEK293 cells were cultured in MEM medium supplemented with 10% FBS (fetal bovine serum, Gibico), 1% L-glutamine (Gibco) and 1% mycillin (Gibco). Before transfection, the cells were subcultured onto a 3.5cm dish at the ratio of 1:2. Then, the plasmids of α1/α2/α3/α5 (Origene), β2/β3 (Origene) and γ2 (Shanghai Genechem Co.,Ltd ) (5μg total DNA, ratio 1:1:2) were transfected using Fugene®HD transfection reagent (Promega). The γ2 subunit contained GFP from IRES (internal ribosomal entry site) and was used as a marker of the successful transfection. Cells were used for electrophysiology recording 18-36 hours after transfection.
(§2) Electrophysiology recordings from HEK293 cells were performed as described previously. Briefly, whole-cell patch-clamp recordings of GABA-evoked currents were made at 30 °C with the holding potential of -60 mV. The internal solution (solution in recording electrodes) contained (in mM): 120 CsCl, 10 EGTA, 10 HEPES, 4 MgCl2, 0.5 GTP, 2 ATP and pH was adjusted to 7.4 with CsOH and the external solution contained (in mM): 150 NaCl, 10 KCl, 2 CaCl2, 1 MgCl, 10 HEPES, 10 Glucose and pH was adjusted to 7.4 with NaOH. ACSF was bubbled continuously with carbogen (95%O2 and 5%CO2). For the recording of GABA-evoked currents, the slides were transferred to a recording chamber, which was perfused with ACSF at a rate of 4 ml/min. The cells were viewed under upright microscopy (Olympus), and GFP-positive cells were selected to record the currents. The interval time between each different dose of GABA was controlled, 3 to 5 minutes to avoid the desensitization of GABAARs.

α1β2γ2 GABAARs = molecular target: T2, α1β2γ2 GABAARs (Homo sapiens, UniProt P14867+P18507+P47870); assay: as above; format: cell-based; conditions: α1β2γ2
T2 construct: Shanghai Genechem Co.,Ltd (γ2 plasmid); host or cells: HEK293
T2 sequence (P14867 28-456): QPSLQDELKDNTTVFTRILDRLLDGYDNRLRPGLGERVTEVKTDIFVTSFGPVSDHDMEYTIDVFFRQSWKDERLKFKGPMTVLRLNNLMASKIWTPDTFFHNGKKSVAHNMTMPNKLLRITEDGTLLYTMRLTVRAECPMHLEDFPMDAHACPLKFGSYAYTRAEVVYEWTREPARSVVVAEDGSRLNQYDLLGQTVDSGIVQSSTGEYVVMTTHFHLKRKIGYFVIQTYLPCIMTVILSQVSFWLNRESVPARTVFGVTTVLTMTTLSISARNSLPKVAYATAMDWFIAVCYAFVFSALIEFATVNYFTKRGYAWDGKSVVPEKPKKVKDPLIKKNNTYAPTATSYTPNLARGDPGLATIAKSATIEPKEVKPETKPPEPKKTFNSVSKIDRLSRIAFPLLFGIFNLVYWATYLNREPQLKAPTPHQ
T2 sequence (P47870 25-512 limits assumed): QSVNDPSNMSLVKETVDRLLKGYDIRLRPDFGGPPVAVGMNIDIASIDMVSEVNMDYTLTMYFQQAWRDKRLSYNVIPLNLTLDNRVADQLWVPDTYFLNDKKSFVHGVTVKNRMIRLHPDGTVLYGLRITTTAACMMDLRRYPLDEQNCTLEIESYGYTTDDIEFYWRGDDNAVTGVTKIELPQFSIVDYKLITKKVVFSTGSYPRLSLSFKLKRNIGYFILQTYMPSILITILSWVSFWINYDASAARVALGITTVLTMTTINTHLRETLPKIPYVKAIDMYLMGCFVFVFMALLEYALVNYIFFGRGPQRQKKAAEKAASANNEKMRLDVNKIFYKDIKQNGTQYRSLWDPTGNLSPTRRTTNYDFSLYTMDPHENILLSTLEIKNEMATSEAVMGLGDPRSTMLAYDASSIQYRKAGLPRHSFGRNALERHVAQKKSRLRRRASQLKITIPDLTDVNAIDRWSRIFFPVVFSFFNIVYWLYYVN
T2 sequence (P18507 40-475): as the sequence (P18507 40-475) above
Procedure: as §1, §2

α2β3γ2 GABAARs = molecular target: T3, α2β3γ2 GABAARs (Homo sapiens, UniProt P18507+P28472+P47869); assay: as above; format: cell-based; conditions: α2β3γ2
T3 construct: Shanghai Genechem Co.,Ltd (γ2 plasmid); host or cells: HEK293
T3 sequence (P47869 29-451): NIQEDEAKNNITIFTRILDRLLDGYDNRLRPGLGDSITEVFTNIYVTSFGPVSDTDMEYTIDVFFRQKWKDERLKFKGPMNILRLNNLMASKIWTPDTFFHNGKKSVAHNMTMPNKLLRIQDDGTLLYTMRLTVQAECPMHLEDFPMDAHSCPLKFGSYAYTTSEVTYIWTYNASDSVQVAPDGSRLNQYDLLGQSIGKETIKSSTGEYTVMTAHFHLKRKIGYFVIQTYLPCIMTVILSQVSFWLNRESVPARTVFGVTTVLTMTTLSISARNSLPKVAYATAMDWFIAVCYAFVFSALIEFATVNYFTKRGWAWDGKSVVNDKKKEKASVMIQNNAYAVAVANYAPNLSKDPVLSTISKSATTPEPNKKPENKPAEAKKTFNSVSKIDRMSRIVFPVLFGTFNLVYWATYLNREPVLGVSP
T3 sequence (P28472 26-473): as the sequence (P28472 26-473) above
T3 sequence (P18507 40-475): as the sequence (P18507 40-475) above
Procedure: as §1, §2

CC1(C)C2CCC1(C)C(OC(=O)c1ccc(NCc3cc(Cl)cc(Cl)c3O)cc1O)C2 (centres unmarked) [ZL006-05]
Metabolites found in plasma ([1]; after intravenous injection: M2-2, M3-2, M4): Three metabolites except parent drug
Main metabolite in plasma (UPLC-UV) ([1]; after iv dosing, 6.0 mg/kg): parent drug (M0)
Metabolites found in plasma ([1]; after oral administration: M1, M2-1, M2-2, M3-1, M3-2): five metabolites
Main metabolite in plasma (UPLC-UV) ([1]; after oral dosing, 90 mg/kg): parent drug (M0) and glucuronide conjunction (M2-2)
Motor coordination, time spent on the accelerating rotarod (motor coordination): had no effect
Effect on α3GABAAR (in words) (α3β3γ2 GABAARs): low efficacy on α3GABAAR
Effect on GABA-evoked currents of α1-containing GABAAR (in words) (α1β2γ2 GABAARs): does not potentiate α1GABAAR
Effect on α2-containing GABAAR (in words) (α2β3γ2 GABAARs): very high affinity to α2-containing GABAAR; also recorded: very high efficacy and potency on α2GABAARs
